Laboratory results from patent US6358885B1, “Substituted phenylheterocyclic herbicides” (Mississippi State University, priority 1992, dated 2002).

Experiments:
Japonica rice [1] = test: Test E paddy water application plant response rating 0 to 100; format: in vivo, oryza sativa; conditions: Flood, 0 to 100 scale, approx. 21 days
How it was run: (§1)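 Compounds in a non-phytotoxic solvent were applied directly to paddy water kept 2 cm above silt loam soil in greenhouse pots.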

barnyardgrass [2] = test: as above; format: in vivo, Echinochloa crus-galli; conditions: Flood, 0 to 100 scale, approx. 21 days
How it was run: as §1

barnyardgrass [3] = test: Test D paddy water application plant response rating 0 to 100; format: in vivo, Echinochloa crus-galli; conditions: 0 to 100 scale, approx. 21 days
How it was run: (§2)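 Pots of water-saturated silt loam held paddy water 3 cm above the soil surface for the whole test. Compounds in a non-phytotoxic solvent were applied directly into the paddy water. After about 21 days in a greenhouse, plants were rated visually against untreated controls.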

Japonica rice [4] = test: as above; format: in vivo, Oryza sativa; conditions: 0 to 100 scale, approx. 21 days
How it was run: as §2

umbrella sedge = test: as above; format: in vivo, Cyperus difformis; conditions: 0 to 100 scale, approx. 21 days
How it was run: as §2

wild radish = test: Test F preemergence/postemergence greenhouse plant response rating 0 to 100; format: in vivo, Raphanus raphanistrum; conditions: POSTEMERGENCE, 0 to 100 scale
Text: (§3) Compounds evaluated in this test were formulated in a non-phytoxic solvent and applied to the soil surface before plant seedlings emerged (preemergence application) and to plants that were in the one-to-four leaf stage (postemergence application). A sandy loam soil was used for the preemergence test while a mixture of sandy loam soil and greenhouse potting mix in a 60:40 ratio was used for the postemergence test. Test compounds were applied within approximately one day after planting seeds for the preemergence test. Plantings of these crops and weed species were adjusted to produce plants of appropriate size for the postemergence test. All plant species were grown using normal greenhouse practices. Crop and weed species include winter barley (Hordeum vulgare cv. ‘Igri’), blackgrass (Alopecurus myosuroides), chickweed (Stellaria media), downy brome (Bromus tectorum), field violet (Viola arvensis), galium (Galium aparine), green foxtail (Setaria viridis), kochia (Kochia scoparia), lambsquarters (Chenopodium album), speedwell (Veronica persica), rape (Brassica napus), ryegrass (Lolium multiflorum), sugar beet (Beta vulgaris cv. ‘USl’), sunflower (Helianthus annuus cv. ‘Russian Giant’), spring wheat (Triticum aestivum cv. ‘ERA’), winter wheat (Triticum aestivum cv. ‘Talent’), wild buckwheat (Polygonum convolvulus), wild mustard (Sinapis arvensis), wild oat (Avena fatua), and wild radish (Raphanus raphanistrum). Blackgrass, galium and wild oat were treated at two growth stages. […] Treated plants and untreated controls were maintained in a greenhouse for approximately 21 to 28 days, after which all treated plants were compared to untreated controls and visually evaluated. […] A dash response (-) means no test result.

kochia = test: as above; format: in vivo, Kochia scoparia; conditions: POSTEMERGENCE, 0 to 100 scale
Text: as §3

green foxtail = test: as above; format: in vivo, Setaria viridis; conditions: POSTEMERGENCE, 0 to 100 scale
Text: as §3

waterchestnut = test: Test D paddy water application plant response rating 0 to 100; format: in vivo, Eleocharis spp.; conditions: 0 to 100 scale, approx. 21 days
How it was run: as §2

wild mustard = test: Test F preemergence/postemergence greenhouse plant response rating 0 to 100; format: in vivo, Sinapis arvensis; conditions: POSTEMERGENCE, 0 to 100 scale
Text: as §3

field violet = test: as above; format: in vivo, Viola arvensis; conditions: POSTEMERGENCE, 0 to 100 scale
Text: as §3

chickweed = test: as above; format: in vivo, Stellaria media; conditions: POSTEMERGENCE, 0 to 100 scale
Text: as §3

duck salad = test: Test D paddy water application plant response rating 0 to 100; format: in vivo, Heteranthera limosa; conditions: 0 to 100 scale, approx. 21 days
How it was run: as §2

winter barley = test: Test F preemergence/postemergence greenhouse plant response rating 0 to 100; format: in vivo, Hordeum vulgare cv. ‘Igri’; conditions: POSTEMERGENCE, 0 to 100 scale
Text: as §3

arrowhead = test: Test D paddy water application plant response rating 0 to 100; format: in vivo, Sagittaria spp.; conditions: 0 to 100 scale, approx. 21 days
How it was run: as §2

Fc1cc(Cl)c(OCCCl)cc1-c1nn2c(c1Cl)CCCC2 [Compound 49]
Japonica 1 plant response rating (Japonica rice [1]; Rate 8 g/ha): 0
Japonica 2 plant response rating (Japonica rice [1]; Rate 8 g/ha): 0
Japonica 1 plant response rating (Japonica rice [1]; Rate 16 g/ha): 0
Japonica 2 plant response rating (Japonica rice [1]; Rate 16 g/ha): 20
Japonica 1 plant response rating (Japonica rice [1]; Rate 32 g/ha): 0
Japonica 2 plant response rating (Japonica rice [1]; Rate 32 g/ha): 30
Japonica 1 plant response rating (Japonica rice [1]; Rate 64 g/ha): 25
Japonica 2 plant response rating (Japonica rice [1]; Rate 64 g/ha): 30
Barnyardgrass 2 plant response rating (barnyardgrass [2]; Rate 8 g/ha): 25
Barnyardgrass 3 plant response rating (barnyardgrass [2]; Rate 8 g/ha): 35
Barnyardgrass 2 plant response rating (barnyardgrass [2]; Rate 16 g/ha): 45
Barnyardgrass 3 plant response rating (barnyardgrass [2]; Rate 16 g/ha): 45
Barnyardgrass 2 plant response rating (barnyardgrass [2]; Rate 32 g/ha): 90
Barnyardgrass 3 plant response rating (barnyardgrass [2]; Rate 32 g/ha): 55
Barnyardgrass 2 plant response rating (barnyardgrass [2]; Rate 64 g/ha): 100
Barnyardgrass 3 plant response rating (barnyardgrass [2]; Rate 64 g/ha): 70
Barnyardgrass 2 plant response rating (barnyardgrass [3]; Rate 4 g/ha): 0
Barnyardgrass 2 plant response rating (barnyardgrass [3]; Rate 8 g/ha): 20
Barnyardgrass 2 plant response rating (barnyardgrass [3]; Rate 16 g/ha): 30
Barnyardgrass 2 plant response rating (barnyardgrass [3]; Rate 32 g/ha): 70
Barnyardgrass 2 plant response rating (barnyardgrass [3]; Rate 64 g/ha): 100
Japonica rice plant response rating (Japonica rice [4]; Rate 4 g/ha): 10
Japonica rice plant response rating (Japonica rice [4]; Rate 8 g/ha): 10
Japonica rice plant response rating (Japonica rice [4]; Rate 16 g/ha): 10
Japonica rice plant response rating (Japonica rice [4]; Rate 32 g/ha): 15
Japonica rice plant response rating (Japonica rice [4]; Rate 64 g/ha): 20
Umbrella sedge plant response rating (umbrella sedge; Rate 4 g/ha): 0
Umbrella sedge plant response rating (umbrella sedge; Rate 8 g/ha): 0
Umbrella sedge plant response rating (umbrella sedge; Rate 16 g/ha): 0
Umbrella sedge plant response rating (umbrella sedge; Rate 32 g/ha): 0
Umbrella sedge plant response rating (umbrella sedge; Rate 64 g/ha): 50
Wild radish plant response rating (wild radish; Rate 2 g/ha): 0
Wild radish plant response rating (wild radish; Rate 4 g/ha): 0
Wild radish plant response rating (wild radish; Rate 8 g/ha): 10
Wild radish plant response rating (wild radish; Rate 16 g/ha): 100
Kochia plant response rating (kochia; Rate 2 g/ha): 20
Kochia plant response rating (kochia; Rate 4 g/ha): 60
Kochia plant response rating (kochia; Rate 8 g/ha): 80
Kochia plant response rating (kochia; Rate 16 g/ha): 100
Kochia plant response rating (kochia; Rate 32 g/ha): 100
Green foxtail plant response rating (green foxtail; Rate 2 g/ha): 0
Green foxtail plant response rating (green foxtail; Rate 4 g/ha): 0
Green foxtail plant response rating (green foxtail; Rate 8 g/ha): 20
Green foxtail plant response rating (green foxtail; Rate 16 g/ha): 50
Green foxtail plant response rating (green foxtail; Rate 32 g/ha): 60
Waterchestnut plant response rating (waterchestnut; Rate 4 g/ha): 0
Waterchestnut plant response rating (waterchestnut; Rate 8 g/ha): 0
Waterchestnut plant response rating (waterchestnut; Rate 16 g/ha): 0
Waterchestnut plant response rating (waterchestnut; Rate 32 g/ha): 10
Waterchestnut plant response rating (waterchestnut; Rate 64 g/ha): 20
Wild mustard plant response rating (wild mustard; Rate 2 g/ha): 90
Wild mustard plant response rating (wild mustard; Rate 4 g/ha): 100
Wild mustard plant response rating (wild mustard; Rate 8 g/ha): 100
Wild mustard plant response rating (wild mustard; Rate 32 g/ha): 100
Field violet plant response rating (field violet; Rate 8 g/ha): 60
Field violet plant response rating (field violet; Rate 16 g/ha): 60
Field violet plant response rating (field violet; Rate 32 g/ha): 100
Chickweed plant response rating (chickweed; Rate 2 g/ha): 0
Chickweed plant response rating (chickweed; Rate 4 g/ha): 0
Chickweed plant response rating (chickweed; Rate 8 g/ha): 20
Chickweed plant response rating (chickweed; Rate 16 g/ha): 50
Chickweed plant response rating (chickweed; Rate 32 g/ha): 60
Duck salad plant response rating (duck salad; Rate 4 g/ha): 0
Duck salad plant response rating (duck salad; Rate 8 g/ha): 0
Duck salad plant response rating (duck salad; Rate 16 g/ha): 0
Duck salad plant response rating (duck salad; Rate 32 g/ha): 0
Duck salad plant response rating (duck salad; Rate 64 g/ha): 10
Winter Barley plant response rating (winter barley; Rate 2 g/ha): 0
Winter Barley plant response rating (winter barley; Rate 4 g/ha): 0
Winter Barley plant response rating (winter barley; Rate 8 g/ha): 10
Winter Barley plant response rating (winter barley; Rate 16 g/ha): 10
Winter Barley plant response rating (winter barley; Rate 32 g/ha): 20
Arrowhead plant response rating (arrowhead; Rate 4 g/ha): 0
Arrowhead plant response rating (arrowhead; Rate 8 g/ha): 0
Arrowhead plant response rating (arrowhead; Rate 16 g/ha): 0
Arrowhead plant response rating (arrowhead; Rate 64 g/ha): 0
